In US20050043534A1, “Modulators of ceramidase and methods of used based thereon” (priority 2001, published 2005):
pIC50: −log10 of the molar value. Where “and” joins values, the source holds several entries; their conditions need not be identical. Equal values may be shown once.

What was measured:
[1] = test system: human embryonal kidney cells HEK-293; assay: MTT cell viability assay, HEK-293 cells; assay type: cell-based; conditions: 18 hours treatment
Experimental: MCF7 human breast carcinoma cells (ATCC No. HTB-22) and human embryonal kidney cells HEK-293 (ATCC No. CRL-1573) were purchased from American Type Culture Collection.
To investigate the effect of the compound of interest on each of these cell lines, on Day 1, about 50 μL (about 5,000 cells) of the MCF7 or HEK-293 cells were plated down into 96-well plate which contains RPMI 1640 1× (MOD) media (purchased from Media Tech) containing L-glutamine and 10% fetal calf serum (purchased from Gibco). The cells were contained at 37° C. in a humidified atmosphere containing 5% CO2 overnight. On Day 2, the cells were treated with the compound of interest which was dissolved in 100% ethanol. To facilitate dissolution of the compound of interest, a 98% ethanol/2% dodecane can be used as the solvent instead of 100% ethanol. […] The cells were treated with the compound of interest for 18 hours after which the effect on cell viability was measured by MTT assay (Mossman, T. (1983) J. Immuno. Meth. 65, 55-63; and Berridge, M. V. and Tan, A. S. (1993) Archives of Biochemistry & Biophysics, 303, 474-482) as described below.
MTT Assay: • (1) Add to each well 25 μL of MTT stock solution (5 mg/mL in PBS); • (2) Incubate for 5 hours; • (3) Add 100 μL of lysing buffer (20% SDS (w/v), 50% N,N-Dimethyl formamide (v/v)) and stand overnight; • (4) read plate at 595 nm.

[2] = test system: MCF7 human breast carcinoma cells; assay: MTT cell viability assay, MCF7 cells; assay type: cell-based; conditions: 18 hours treatment
Experimental: The cells were contained at 37° C. in a humidified atmosphere containing 5% CO2 overnight. On Day 2, the cells were treated with the compound of interest which was dissolved in 100% ethanol. […] The control is a sample without the compound of interest.

[3] = biological target: mitochondrial ceramidase (Rattus norvegicus, UniProt Q91XT9); assay: mitochondrial ceramidase (mt-CDase) activity, radioactive assay or HPLC assay; assay type: biochemical
Sequence of mitochondrial ceramidase (Q91XT9 whole entry): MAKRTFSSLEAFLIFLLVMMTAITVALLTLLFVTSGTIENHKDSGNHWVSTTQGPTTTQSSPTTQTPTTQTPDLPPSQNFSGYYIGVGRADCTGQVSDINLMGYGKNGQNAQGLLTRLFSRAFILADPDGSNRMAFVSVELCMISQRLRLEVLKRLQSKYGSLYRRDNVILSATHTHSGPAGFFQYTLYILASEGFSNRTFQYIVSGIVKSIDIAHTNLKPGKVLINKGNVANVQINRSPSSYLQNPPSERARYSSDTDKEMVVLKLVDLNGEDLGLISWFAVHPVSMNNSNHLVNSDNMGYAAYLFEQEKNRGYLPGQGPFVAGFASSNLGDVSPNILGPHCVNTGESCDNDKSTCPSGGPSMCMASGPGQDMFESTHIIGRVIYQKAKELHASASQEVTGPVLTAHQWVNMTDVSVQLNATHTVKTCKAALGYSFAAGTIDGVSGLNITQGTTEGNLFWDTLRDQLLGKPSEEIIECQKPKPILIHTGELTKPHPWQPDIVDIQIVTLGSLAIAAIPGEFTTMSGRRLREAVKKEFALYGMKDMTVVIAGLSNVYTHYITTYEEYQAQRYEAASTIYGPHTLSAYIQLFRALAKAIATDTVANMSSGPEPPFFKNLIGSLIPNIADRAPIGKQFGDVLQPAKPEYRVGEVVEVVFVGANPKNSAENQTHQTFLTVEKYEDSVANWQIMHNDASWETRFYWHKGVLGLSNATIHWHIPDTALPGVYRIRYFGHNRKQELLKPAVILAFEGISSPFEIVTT
Experimental: The enzymatic activity of mitochondrial ceramidase was determined by either one of the two following methods:
a. Radioactive assay: The mt-CDase activity was determined by measuring the release of radioactive fatty acid from tritiated ceramide ([^3H]-C16-Cer), labeled in the acyl chain. Briefly, organic solutions of ceramide and its analogues were initially mixed together, solvents were completely evaporated under nitrogen, then the dried lipids were dispersed in Triton-X 100 by sonication and vigorous vortexing. The reaction assay contained (in a final volume of 200 μl): enzyme (5-10 ng) and 10 nmoles of tritiated C16-ceramide (1×10^5 dpm) delivered in 100 μl of 1% Triton X-100 micelles in a glycine buffer pH 9.5 (200 mM).
b. HPLC-assay: The Mt-CDase activity was also determined by measuring the amount of sphingosine released. Basically the assay was initially the same as described above but using non-radioactive ceramide. The reaction was stopped with 800 μl of chloroform: methanol (2:1 v/v) mixture followed by the addition of phyto-sphingosine (0.5 nmoles) and dihydro-sphingosine (1 nmole) as internal standard and carrier, respectively. The reaction mix was then extracted with NaOH (50 μl, 1N), and the lower chloroform layer containing the sphingosine was further washed with water (100 μl) and dried. The released sphingosine was quantified as the ortho-phthaldehyde (OPA) derivatives as described (30). […] The solvent system was methyl alcohol: potassium phosphate buffer (5 mM), pH 7.0 (90:10 v/v) at a flow rate of 1 ml/min. […] Activity was determined relative to the phytosphingosine OPA peak.
The effects of various compounds of the invention which are stereochemical and structural analogues of ceramide and sphingosine on mt-CDase were investigated. […] Results were expressed as percent of the control ceramidase activity.

[4] = test system: mouse fibroblast cells, L929; assay: TNFα-induced PGE2 release from L929 cells; assay type: cell-based; conditions: preliminary data
Text: Interleukin-1 is a major inducer of inflammation and TNF is an important regulator of the reaction. Both cytokines can activate ceramidase, and thus inhibiting the activity of ceramidase can result in an anti-inflammatory effect. This may involve the prevention of the formation of sphingosine and sphingosine phosphate which have pro-inflammatory effects. Also, inhibition of ceramidase may prevent the hyperproliferation of immune cells that are important for inflammation. […] The release of PGE2 is also shown to be inhibited by D-(N-myristolyamino)-1-phenyl-1-propanol), D-MAPP, which is an inhibitor of one of the ceramidase. This observation may be important for inhibiting inflammatory reactions that occur in conditions, such as but not limited to rheumatoid arthritis. Thus, it is possible to treat or prevent inflammation by regulating the level of cellular ceramide using the method of the invention. As discussed above, ceramide level can be increased by administering compounds of the present invention that can inhibit mitochondrial ceramidase.

hydrolysis by mt-CDase (substrate or not, in words) [3] | Estimated IC50 (mole %) ([3]; Table 1, ceramide analogues, hydrolysis of D-erythro-C16 or C18-ceramide at 0.625 mole % (50 μM)) | effect on mt-CDase activity (in words) ([3]; concentrations as stated at the place) | inhibition at 50 µM ([3]; inhibitor at 0.625 mole % (50 μM), read-out: inhibition (maximal inhibition) of mt-CDase activity) [%] | pIC50 ([3]; substrate D-erythro-ceramide 50 μM) | IC50 (50% inhibition of mt-CDase activity) ([3]; substrate D-erythro-ceramide 0.625 mole %) | type of inhibition (double reciprocal analysis: Km increased, Vmax unchanged) ([3]; varying D-erythro-ceramide concentration) | melting point [°C] | Compound | effect on cell growth and proliferation (in words) [1] | effect on cell growth and proliferation (in words) [2] | release of PGE2 [4]
not a substrate | 0.33 | potent inhibitor | 75 | 4.60 | 0.33 mole % and 0.31 mole % | competitive inhibitor | 105 to 106 | CCCCCCCCCCCCC/C=C/[C@@H](O)[C@H](CO)NC(=O)NCCCCCCCCCCCCCCCC [Compound C16-urea-Cer, (2S, 3R,4E)-N-[2-(1,3-Dihydroxy-4E-octadecene)]-N′-hexadecane-urea] | potent inhibitor of cell growth and proliferation | potent inhibitor of cell growth and proliferation | –
– | – | – | – | – | – | – | – | CCCCCCCCCCCCCC(=O)NC(C)C(O)c1ccccc1 [D-MAPP] | – | – | inhibited
